Consider 30 compounds from patent publication US20230103791A1 (GLAXOSMITHKLINE INTELLECTUAL PROPERTY DEVELOPMENT LIMITED, priority 2019, published 2023).

In one test the target is T1, human Nav1.8 (Homo sapiens, UniProt Q9Y5Y9).
T1 construct: expressed in transfected cells; host or cells: HEK293 (HEK293-Nav1.8)
T1 sequence (Q9Y5Y9 whole entry): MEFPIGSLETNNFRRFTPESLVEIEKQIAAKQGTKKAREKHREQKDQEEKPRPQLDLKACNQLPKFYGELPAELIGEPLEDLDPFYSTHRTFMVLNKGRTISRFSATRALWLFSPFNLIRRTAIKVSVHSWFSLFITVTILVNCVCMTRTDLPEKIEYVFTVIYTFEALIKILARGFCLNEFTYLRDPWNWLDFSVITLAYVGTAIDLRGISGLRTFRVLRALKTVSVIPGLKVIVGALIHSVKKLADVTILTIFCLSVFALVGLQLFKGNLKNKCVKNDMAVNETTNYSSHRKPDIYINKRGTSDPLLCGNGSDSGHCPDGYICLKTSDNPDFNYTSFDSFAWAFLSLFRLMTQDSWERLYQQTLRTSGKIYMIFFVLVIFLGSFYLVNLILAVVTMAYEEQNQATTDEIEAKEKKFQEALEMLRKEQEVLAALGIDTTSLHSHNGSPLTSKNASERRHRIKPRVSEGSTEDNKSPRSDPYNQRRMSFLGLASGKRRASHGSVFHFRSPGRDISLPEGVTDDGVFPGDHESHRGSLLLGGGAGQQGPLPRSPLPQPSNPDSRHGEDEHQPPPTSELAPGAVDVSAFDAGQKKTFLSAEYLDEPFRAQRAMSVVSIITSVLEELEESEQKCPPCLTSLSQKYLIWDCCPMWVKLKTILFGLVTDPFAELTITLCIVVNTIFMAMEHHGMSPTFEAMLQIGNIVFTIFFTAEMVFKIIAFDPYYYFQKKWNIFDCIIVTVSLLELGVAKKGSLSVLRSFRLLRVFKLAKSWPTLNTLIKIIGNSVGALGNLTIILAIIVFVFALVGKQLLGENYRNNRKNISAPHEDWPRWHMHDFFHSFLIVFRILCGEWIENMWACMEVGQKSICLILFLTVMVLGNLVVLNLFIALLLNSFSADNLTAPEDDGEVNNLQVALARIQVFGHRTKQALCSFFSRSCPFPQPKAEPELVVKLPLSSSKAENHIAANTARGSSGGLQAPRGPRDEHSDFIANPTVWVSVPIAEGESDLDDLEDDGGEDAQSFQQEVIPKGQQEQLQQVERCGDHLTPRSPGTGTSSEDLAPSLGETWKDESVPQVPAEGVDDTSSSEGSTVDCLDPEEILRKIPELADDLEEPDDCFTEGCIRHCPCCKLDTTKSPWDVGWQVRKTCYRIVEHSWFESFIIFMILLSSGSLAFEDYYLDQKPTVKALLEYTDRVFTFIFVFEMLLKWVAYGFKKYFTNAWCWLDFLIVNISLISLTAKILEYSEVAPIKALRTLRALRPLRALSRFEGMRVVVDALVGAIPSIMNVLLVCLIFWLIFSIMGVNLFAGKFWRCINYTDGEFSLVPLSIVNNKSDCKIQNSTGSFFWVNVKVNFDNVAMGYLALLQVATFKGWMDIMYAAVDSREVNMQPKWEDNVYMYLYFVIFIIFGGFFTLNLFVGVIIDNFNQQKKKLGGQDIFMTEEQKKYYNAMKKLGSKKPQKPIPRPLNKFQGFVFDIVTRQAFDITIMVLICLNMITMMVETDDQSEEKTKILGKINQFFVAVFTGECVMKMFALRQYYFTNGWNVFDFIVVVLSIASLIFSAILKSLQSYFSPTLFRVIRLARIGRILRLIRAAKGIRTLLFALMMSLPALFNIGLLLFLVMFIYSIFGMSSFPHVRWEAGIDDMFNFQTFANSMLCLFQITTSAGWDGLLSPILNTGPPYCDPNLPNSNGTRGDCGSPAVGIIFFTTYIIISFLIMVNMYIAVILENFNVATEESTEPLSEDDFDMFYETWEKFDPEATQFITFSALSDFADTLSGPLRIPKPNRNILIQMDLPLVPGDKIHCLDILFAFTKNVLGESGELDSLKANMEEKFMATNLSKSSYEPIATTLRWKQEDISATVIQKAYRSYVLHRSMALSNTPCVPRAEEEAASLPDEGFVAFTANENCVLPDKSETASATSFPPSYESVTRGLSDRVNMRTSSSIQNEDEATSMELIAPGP
T1 sequence (Q07699 19-218 partner): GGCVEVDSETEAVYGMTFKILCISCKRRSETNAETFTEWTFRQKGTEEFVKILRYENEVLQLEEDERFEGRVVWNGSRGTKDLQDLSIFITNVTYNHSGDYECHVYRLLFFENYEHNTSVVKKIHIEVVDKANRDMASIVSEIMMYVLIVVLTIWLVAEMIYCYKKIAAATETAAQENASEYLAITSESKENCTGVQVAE
The experiment in a line: Nav1.8 sodium channels assay, QPatch 48 HTX electrophysiology in HEK293-Nav1.8 cells. Format: cell-based. The following applies: Table 1; HEK293-Nav1.8, QPatch 48 HTX, half inactivation state voltage protocol (V1/2); single run or average of two or more runs; read-out: Nav1.8 pIC50 (converted). The method in brief: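 IC50 came from 6-8 point curves of P2 current amplitude, normalized to baseline and a positive reference, and corrected for run-down using vehicle-only wells. Automated patch clamp used HEK293-Nav1.8 (with Navβ1 and TREK1) at pH 7.4 outside and CsF-based solution inside. An 8 s inactivating step at −46 mV preceded the 0 mV test pulse, repeated at 0.07 Hz.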
As to `Cc1cc(F)ccc1N1CN(c2ccc(=O)[nH]c2C)C(=O)c2cc(C(F)(F)F)cnc21` [drawing 266, 1-(4-fluoro-2-methylphenyl)-3-(2-methyl-6-oxo-1,6-dihydropyridin-3-yl)-6-(trifluoromethyl)-2,3-dihydropyrido[2,3-d]pyrimidin-4(1H)-one], the IC50 is 158 nM.

With `Cc1[nH]c(=O)ccc1N1CN(c2ccc(F)cc2)c2cc(C(F)(F)F)ccc2C1=O` [drawing 285, 1-(4-fluorophenyl)-3-(2-methyl-6-oxo-1,6-dihydropyridin-3-yl)-7-(trifluoromethyl)-2,3-dihydroquinazolin-4(1H)-one], the IC50 is 126 nM.

In the case of `Cc1cc(F)ccc1N1CN(c2ccc(=O)[nH]c2)C(=O)c2ccc(C(F)(F)F)c(C)c21` [drawing 284, 1-(4-fluoro-2-methylphenyl)-8-methyl-3-(6-oxo-1,6-dihydropyridin-3-yl)-7-(trifluoromethyl)-2,3-dihydroquinazolin-4(1H)-one], the IC50 is 6310 nM.

As to `CCc1[nH]c(=O)ccc1N1CN(c2ccc(F)cc2C)c2cc(C(F)(F)F)ccc2C1=O` [drawing 291, 3-(2-ethyl-6-oxo-1,6-dihydropyridin-3-yl)-1-(4-fluoro-2-methylphenyl)-7-(trifluoromethyl)-2,3-dihydroquinazolin-4(1H)-one], the IC50 is 20 nM.

Regarding `Cc1cc(F)ccc1N1CN(c2ccc(=O)[nH]c2C)C(=O)c2ccc(Br)cc21` [drawing 298, 7-bromo-1-(4-fluoro-2-methylphenyl)-3-(2-methyl-6-oxo-1,6-dihydropyridin-3-yl)-2,3-dihydroquinazolin-4(1H)-one], the IC50 is 3.16 nM.

Consider `O=C1c2ccc(C(F)(F)F)cc2N(c2ccc(F)cc2OCCO)CN1c1ccc(=O)[nH]c1` [drawing 277, 1-(4-fluoro-2-(2-hydroxyethoxy)phenyl)-3-(6-oxo-1,6-dihydropyridin-3-yl)-7-(trifluoromethyl)-2,3-dihydroquinazolin-4(1H)-one], for which the IC50 was 6310 nM.

Turning to `Cc1ccc2c(c1)C(=O)N(c1ccc(=O)[nH]c1C)CN2c1ccc(F)cc1C` [drawing 296, 1-(4-fluoro-2-methylphenyl)-6-methyl-3-(2-methyl-6-oxo-1,6-dihydropyridin-3-yl)-2,3-dihydroquinazolin-4(1H)-one], the IC50 was 50.1 nM.

For `Cc1cc(F)ccc1N1CN(c2ccc(=O)n(C)c2)C(=O)c2ccc(C(F)(F)F)cc21` [drawing 265], the IC50 is 2000 nM.

The test is the same for the next values; noted with them: at least one set of experimental runs; read-out: average pIC50 value against Nav1.8 (converted).
In the case of `Cc1cc(F)ccc1N1CN(c2ccc(=O)[nH]c2C)C(=O)c2ccc(C(F)F)cc21` [Example 138, 7-(difluoromethyl)-1-(4-fluoro-2-methylphenyl)-3-(2-methyl-6-oxo-1,6-dihydropyridin-3-yl)-2,3-dihydroquinazolin-4(1H)-one], the IC50 is no more than 100 nM.

`Cc1cc(F)ccc1N1CN(c2cnc(=O)[nH]c2C)C(=O)c2ccc(C(F)(F)F)cc21` [Example 115, 1-(4-fluoro-2-methylphenyl)-3-(6-methyl-2-oxo-1,2-dihydropyrimidin-5-yl)-7-(trifluoromethyl)-2,3-dihydroquinazolin-4(1H)-one]: the IC50 is no more than 100 nM.

Regarding `Cc1cc(F)ccc1N1CN(c2ccc(=O)[nH]c2C)C(=O)c2ccc(C(F)(F)F)nc21` [Example 149, 1-(4-fluoro-2-methylphenyl)-3-(2-methyl-6-oxo-1,6-dihydropyridin-3-yl)-7-(trifluoromethyl)-2,3-dihydropyrido[2,3-d]pyrimidin-4(1H)-one], the IC50 was 126 to 631 nM.

As for `Cc1[nH]c(=O)ccc1N1CN([C@@H]2CCOC[C@H]2C)c2cc(C(F)(F)F)ccc2C1=O` [Example 284, 3-(2-Methyl-6-oxo-1,6-dihydropyridin-3-yl)-1-((3S,4R)-3-methyltetrahydro-2H-pyran-4-yl)-7-(trifluoromethyl)-2,3-dihydroquinazolin-4(1H)-one], the IC50 is 794 to 7940 nM.

`CCc1[nH]c(=O)ccc1N1CN(c2ccc(F)cc2C)c2cc(C(F)(F)F)ccc2C1=O` [Example 150, 3-(2-ethyl-6-oxo-1,6-dihydropyridin-3-yl)-1-(4-fluoro-2-methylphenyl)-7-(trifluoromethyl)-2,3-dihydroquinazolin-4(1H)-one]: the IC50 is no more than 100 nM.

With `COc1ccc(N2CN(c3ccc(=O)[nH]c3C)C(=O)c3cc(C(F)(F)F)ccc32)c(OC)c1` [Example 225, 1-(2,4-dimethoxyphenyl)-3-(2-methyl-6-oxo-1,6-dihydropyridin-3-yl)-6-(trifluoromethyl)-2,3-dihydroquinazolin-4(1H)-one], the IC50 is no more than 100 nM.

Take `Cc1cnccc1N1CN(c2ccc(F)cc2C)c2cc(C(F)F)c(Cl)cc2C1=O` [Example 23, 6-chloro-7-(difluoromethyl)-1-(4-fluoro-2-methylphenyl)-3-(3-methylpyridin-4-yl)-2,3-dihydroquinazolin-4(1H)-one]: the IC50 was 126 to 631 nM.

For `Cc1cc(F)ccc1N1CN(c2ccc(=O)[nH]c2C)C(=O)c2ccc(S(C)(=O)=O)cc21` [Example 80, 1-(4-fluoro-2-methylphenyl)-3-(2-methyl-6-oxo-1,6-dihydropyridin, 3-yl)-7-(methylsulfonyl)-2,3-dihydroquinazolin-4(1H)-one], the IC50 was 794 to 7940 nM.

For `Cc1[nH]c(=O)ccc1N1CN(c2ccc(F)c(F)c2C)c2ncc(C(F)(F)F)cc2C1=O` [Example 177, 1-(3,4-difluoro-2-methylphenyl)-3-(2-methyl-6-oxo-1,6-dihydropyridin-3-yl)-6-(trifluoromethyl)-2,3-dihydropyrido[2,3-d]pyrimidin-4(1H)-one], the IC50 is no more than 100 nM.

Take `Cc1cc(F)ccc1N1CN(c2ccc(=O)[nH]c2C(C)C)C(=O)c2ccc(C(F)(F)F)cc21` [Example 198, 1-(4-fluoro-2-methylphenyl)-3-(2-isopropyl-6-oxo-1,6-dihydropyridin-3-yl)-7-(trifluoromethyl)-2,3-dihydroquinazolin-4(1H)-one]: the IC50 was no more than 100 nM.

On to `Cc1cc(F)ccc1N1CN(c2ccc(=O)[nH]c2C)C(=O)c2c(C(F)F)cccc21` [Example 130, 5-(difluoromethyl)-1-(4-fluoro-2-methylphenyl)-3-(2-methyl-6-oxo-1,6-dihydropyridin-3-yl)-2,3-dihydroquinazolin-4(1H)-one], for which the IC50 was 126 to 631 nM.

In the case of `Cc1cnccc1N1CN(c2ccc(F)cc2C)c2ccc(C(F)(F)F)cc2C1=O` [Example 16, 1-(4-fluoro-2-methylphenyl)-3-(3-methylpyridin-4-yl)-6-(trifluoromethyl)-2,3-dihydroquinazolin-4(1H)-one], the IC50 is 126 to 631 nM.

Consider `Cc1cccc(F)c1N1CN(c2ccc(=O)[nH]c2C)C(=O)c2cc(C(F)(F)F)ccc21` [Example 135, 1-(2-fluoro-6-methylphenyl)-3-(2-methyl-6-oxo-1,6-dihydropyridin-3-yl)-6-(trifluoromethyl)-2,3-dihydroquinazolin-4(1H)-one], for which the IC50 was 794 to 7940 nM.

Take `CCc1cc(F)ccc1N1CN(c2ccc(=O)[nH]c2C)C(=O)c2cc(C(F)(F)F)ccc21` [Example 60, 1-(2-ethyl-4-fluorophenyl)-3-(2-methyl-6-oxo-1,6-dihydropyridin-3-yl)-6-(trifluoromethyl)-2,3-dihydroquinazolin-4(1H)-one]: the IC50 was no more than 100 nM.

As to `Cc1cc(=O)[nH]c(C)c1N1CN(c2ccc(F)cc2C(C)C)c2ccc(Cl)cc2C1=O` (single isomer, unassigned) [Example 291, 6-Chloro-3-(2,4-dimethyl-6-oxo-1,6-dihydropyridin-3-yl)-1-(4-fluoro-2-isopropylphenyl)-2,3-dihydroquinazolin-4(1H)-one], the IC50 is 794 to 7940 nM.

For `CCc1cc(F)ccc1N1CN(c2cc[n+]([O-])cc2C)C(=O)c2cc(Cl)c(F)cc21` [Example 245, 4-(6-chloro-1-(2-ethyl-4-fluorophenyl)-7-fluoro-4-oxo-1,4-dihydroquinazolin-3(2H)-y1)-3-methylpyridine 1-oxide], the IC50 was no more than 100 nM.

As for `Cc1cc(F)ccc1N1CN(c2ccc(=O)[nH]c2C)C(=O)c2c1ccc(C(F)(F)F)c2F` [Example 108, 5-fluoro-1-(4-fluoro-2-methylphenyl)-3-(2-methyl-6-oxo-1,6-dihydropyridin-3-yl)-6-(trifluoromethyl)-2,3-dihydroquinazolin-4(1H)-one], the IC50 is no more than 100 nM.

On to `CCc1cc(F)ccc1N1CN(c2ccncc2C)C(=O)c2cc(Cl)c(F)cc21` [Example 12, 6-chloro-1-(2-ethyl-4-fluorophenyl)-7-fluoro-3-(3-methylpyridin-4-yl)-2,3-dihydroquinazolin-4(1H)-one], for which the IC50 was 126 to 631 nM.

For the compound `Cc1cc(F)ccc1N1CN([C@H]2CCC(=O)N[C@@H]2C)C(=O)c2cc(C(F)(F)F)ccc21` [Example 33, 1-(4-fluoro-2-methylphenyl)-3-((2R,3S)-2-methyl-6-oxopiperidin-3-yl)-6-(trifluoromethyl)-2,3-dihydroquinazolin-4(1H)-one], the IC50 is no more than 100 nM.

Take `Cc1cc(F)ccc1N1CN(c2ccc(=O)[nH]c2C)C(=O)c2cc(Cl)c(OC(F)F)cc21` [Example 167, 6-chloro-7-(difluoromethoxy)-1-(4-fluoro-2-methylphenyl)-3-(2-methyl-6-oxo-1,6-dihydropyridin-3-yl)-2,3-dihydroquinazolin-4(1H)-one]: the IC50 is no more than 100 nM.

Consider `Cc1[nH]c(=O)ccc1N1CN(c2ccc(F)cc2C(C)C)c2ccc(Cl)c(C)c2C1=O` [Example 97, 6-chloro-1-(4-fluoro-2-isopropylphenyl)-5-methyl-3-(2-methyl-6-oxo-1,6-dihydropyridin-3-yl)-2,3-dihydroquinazolin-4(1H)-one], for which the IC50 is no more than 100 nM.

Take `Cc1cc(=O)[nH]cc1N1CN(c2ccc(F)cc2C)c2ccc(C(F)(F)F)cc2C1=O` [Example 179, 1-(4-fluoro-2-methylphenyl)-3-(4-methyl-6-oxo-1,6-dihydropyridin-3-yl)-6-(trifluoromethyl)-2,3-dihydroquinazolin-4(1H)-one]: the IC50 was 126 to 631 nM.
